According to paper PMC8888861, “Inhibition of the NLRP3 Inflammasome Activation by Manoalide Ameliorates Experimental Autoimmune Encephalomyelitis Pathogenesis” (Frontiers in Cell and Developmental Biology, 2022):

Molecular target: T1, NLRP3 (Mus musculus, UniProt Q8R4B8)
T1 construct: endogenous NLRP3 in lysates of LPS-primed BMDMs
Assay: DARTS (pronase protection) in BMDM lysates at […]
Type: cell-based

T1 sequence (Q8R4B8 whole entry): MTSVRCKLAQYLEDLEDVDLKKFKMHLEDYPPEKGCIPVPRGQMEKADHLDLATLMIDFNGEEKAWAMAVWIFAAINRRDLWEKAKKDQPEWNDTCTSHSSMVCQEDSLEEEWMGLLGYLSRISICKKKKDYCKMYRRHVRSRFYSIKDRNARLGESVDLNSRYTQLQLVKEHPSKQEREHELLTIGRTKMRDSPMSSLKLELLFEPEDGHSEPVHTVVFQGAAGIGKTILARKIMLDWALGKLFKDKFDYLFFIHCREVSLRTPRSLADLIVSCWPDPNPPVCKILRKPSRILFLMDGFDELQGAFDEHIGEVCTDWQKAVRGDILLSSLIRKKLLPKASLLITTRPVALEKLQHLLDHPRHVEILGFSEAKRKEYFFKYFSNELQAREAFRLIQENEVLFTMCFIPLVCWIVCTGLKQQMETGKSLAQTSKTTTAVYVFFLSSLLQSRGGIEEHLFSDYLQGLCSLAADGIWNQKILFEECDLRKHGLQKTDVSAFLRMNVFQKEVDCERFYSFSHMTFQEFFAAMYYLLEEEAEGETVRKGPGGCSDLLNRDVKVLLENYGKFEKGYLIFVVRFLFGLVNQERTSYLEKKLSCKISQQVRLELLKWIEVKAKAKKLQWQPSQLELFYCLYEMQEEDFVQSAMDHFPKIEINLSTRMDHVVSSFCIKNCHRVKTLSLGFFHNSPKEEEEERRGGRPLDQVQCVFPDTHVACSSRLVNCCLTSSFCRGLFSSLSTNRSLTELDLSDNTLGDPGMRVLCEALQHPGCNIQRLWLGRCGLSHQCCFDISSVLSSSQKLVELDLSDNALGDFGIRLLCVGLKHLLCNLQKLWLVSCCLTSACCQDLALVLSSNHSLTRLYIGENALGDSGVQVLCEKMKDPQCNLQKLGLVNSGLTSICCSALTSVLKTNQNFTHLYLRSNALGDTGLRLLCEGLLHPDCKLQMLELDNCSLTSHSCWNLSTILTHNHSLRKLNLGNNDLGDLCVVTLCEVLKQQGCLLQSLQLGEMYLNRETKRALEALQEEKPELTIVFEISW

Structure (SMILES): CC1=C(CC/C(C)=C/CCC2=CC[C@H](C3=CC(=O)O[C@H]3O)O[C@H]2O)C(C)(C)CCC1 [manoalide]
- DARTS (pronase protection) in BMDM lysates at 10 and 50 μM: Pronase-mediated degradation of NLRP3 is reversed in dose-dependent manner by manoalide.
